# Test results as given in patent US20140296065A1, “USE OF 5-FLUOROCYTOSINE AS A FUNGICIDE” (DOW AGROSCIENCES LLC, priority 2008, published 2014).
# Read-outs that look alike come from different tables or passages of the source.
# Assays:
# Assay type in all cases: in vivo
# [1] = system: Mycosphaerella fijiensis; BAYER code MYCOFI; test: Black Sigatoka Disease of Banana fungicidal activity
# Description: (§1) For the following examples, 5-fluorocytosine or a 5-fluorocytosine derivative was either dissolved in acetone or water, and dilutions were performed to obtain desirable rates. The spray solutions contained either 0.01% triton X-100 or 0.1% Trycol 5941. For high-volume spray, plants were sprayed to run-off using an automated booth sprayer. For a low-volume test, fungicide was applied using a track sprayer with application volume of 200 liters/hectare (L/H).
# Plants were inoculated with fungal pathogens either 3 days before compound application (3-day curative test; 3DC) or 1 day after compound application (1-day protectant test; 1DP). […]
# Efficacy against Mycosphaerella fijiensis was tested using newly emerged leaves of field grown banana plants. […] The leaves were subsequently allowed to become infected by natural inoculum, and were visually assessed for percent disease control ˜40-45 days later.
# (§2) The following tables present the activity of 5-fluorocytosine (Table I) or a 5-fluorocytosine derivative (Table II) when evaluated in these experiments. The effectiveness of 5-fluorocytosine or 5-fluorocytosine derivative in controlling disease was determined by assessing the severity of disease on treated plants, then converting the severity to percent control based on the level of disease on untreated, inoculated plants. • In each case of Tables I and II the rating scale is as follows: […]
# [2] = system: Glomerella lagenarium; anamorph: Colletotrichum lagenarium; Bayer code COLLLA; test: Cucumber Anthracnose fungicidal activity; settings: 200 ppm, 1DP (1-day protectant)
# [3] = system: Cercospora beticola; Bayer code CERCBE; test: Leaf Spot of Sugar Beets fungicidal activity; settings: 100 ppm, 1DP (1-day protectant)
# [4] = system: Mycosphaerella graminicola; anamorph: Septoria tritici; Bayer code SEPTTR; test: Leaf Blotch of Wheat fungicidal activity; settings: for pest or weed control at 100 ppm: Zymoseptoria tritici
# Description: as §1
# (§3) Plants were inoculated with fungal pathogens either 3 days before compound application (3-day curative test; 3DC) or 1 day after compound application (1-day protectant test; 1DP).
# • 1. Evaluation of Fungicidal Activity: Leaf Blotch of Wheat (Mycosphaerella graminicola; anamorph: Septoria tritici; Bayer code SEPTTR):
# Wheat plants (variety Yuma) were grown from seed in a greenhouse in 50% mineral soil/50% soil-less Metro mix until the first leaf was fully emerged, with 7-10 seedlings per pot. These plants were inoculated with an aqueous spore suspension of Septoria tritici either prior to or after fungicide treatments. After inoculation the plants were kept in 100% relative humidity (one day in a dark dew chamber followed by two to three days in a lighted dew chamber) to permit spores to germinate and infect the leaf. The plants were then transferred to a greenhouse for disease to develop. • 2. Evaluation of Fungicidal Activity: Glume Blotch of Wheat (Leptosphaeria nodorum; Bayer code LEPTNO; anamorph: Stagonospora nodorum):
# as §2
# [5] = system: Venturia inaequalis; Bayer code VENTIN; test: Apple Scab fungicidal activity; settings: 75 ppm
# [6] = system: Leptosphaeria nodorum; Bayer code LEPTNO; anamorph: Stagonospora nodorum; test: Glume Blotch of Wheat fungicidal activity; settings: 100 ppm
# Description: as §1, §3
# Wheat plants (variety Yuma) were grown from seed in a greenhouse in 50% mineral soil/50% soil-less Metro mix until the first leaf was fully emerged, with 7-10 seedlings per pot. […]
# as §2
# [7] = system: Cochliobolus sativum; Bayer code COCHSA; anamorph: Helminthosporium sativum; test: Spot Blotch of Barley fungicidal activity; settings: 200 ppm, 1DP (1-day protectant)
# Description: For the following examples, 5-fluorocytosine or a 5-fluorocytosine derivative was either dissolved in acetone or water, and dilutions were performed to obtain desirable rates. The spray solutions contained either 0.01% triton X-100 or 0.1% Trycol 5941. For high-volume spray, plants were sprayed to run-off using an automated booth sprayer. For a low-volume test, fungicide was applied using a track sprayer with application volume of 200 liters/hectare (L/H). Plants were inoculated with fungal pathogens either 3 days before compound application (3-day curative test; 3DC) or 1 day after compound application (1-day protectant test; 1DP). […] Evaluation of Fungicidal Activity: Leaf Spot of Sugar Beets (Cercospora beticola; Bayer code CERCBE): The following tables present the activity of 5-fluorocytosine (Table I) or a 5-fluorocytosine derivative (Table II) when evaluated in these experiments. The effectiveness of 5-fluorocytosine or 5-fluorocytosine derivative in controlling disease was determined by assessing the severity of disease on treated plants, then converting the severity to percent control based on the level of disease on untreated, inoculated plants. • In each case of Tables I and II the rating scale is as follows: […]
# [8] = 24 h, SEPTTR, wheat, 100 ppm, One-Day Protectant (1DP), % disease control rating, read-out: SEPTTR 100 PPM 1DP
# [9] = 72 h, SEPTTR, wheat, 100 ppm, Three-Day Curative (3DC), % disease control rating, read-out: SEPTTR 100 PPM 3DC
# [10] = 24 h, read-out: SEPTTR 100 PPM 1DP
# [11] = 72 h, read-out: SEPTTR 100 PPM 3DC
Compound,"pest or weed control at 100 ppm [4, 8] [%]","pest or weed control at 100 ppm [4, 9] [%]",other results
"Nc1nc(=O)[nH]cc1F [5-FC, 5-Fluorocytosine]",,,"% Disease Control of 5-FC ([1]; 100 ppm, 3DC (3-day curative)): B (51-75); % Disease Control of 5-FC ([1]; 200 ppm, 1DP (1-day protectant)): B (51-75); % Disease Control of 5-FC [2]: A (76-100); % Disease Control of 5-FC [3]: A (76-100); % Disease Control of 5-FC ([4]; SEPTTR, wheat, 100 ppm, 3DC (3-day curative)): A (76-100); % Disease Control of 5-FC ([4]; SEPTTR, wheat, 200 ppm, 1DP (1-day protectant)): A (76-100); % Disease Control of 5-FC ([5]; 1DP (1-day protectant)): A (76-100); % Disease Control of 5-FC ([5]; 3DC (3-day curative)): A (76-100); % Disease Control of 5-FC ([6]; 1DP (1-day protectant)): D (0-25); % Disease Control of 5-FC ([6]; 3DC (3-day curative)): C (26-50); % Disease Control of 5-FC [7]: C (26-50)"
CC(=O)Nc1nc(O)ncc1F [Cmpd 2],76 to 100,76 to 100,
CCC(=O)Nc1nc(O)ncc1F [Cmpd 3],76 to 100,76 to 100,
CC(C)(C)C(=O)Nc1nc(O)ncc1F [Cmpd 4],76 to 100,76 to 100,
Cc1ccc(C(=O)Nc2nc(O)ncc2F)cc1 [Cmpd 5],76 to 100,51 to 75,
O=C(Nc1nc(O)ncc1F)c1ccc(Cl)cc1 [Cmpd 6],76 to 100,26 to 50,
CC(C)COC(=O)Nc1nc(O)ncc1F [Cmpd 7],51 to 75,51 to 75,
CCCCCC(=O)Nc1nc(O)ncc1F [Cmpd 8],76 to 100,76 to 100,
CCCCCCCCCCCC(=O)Nc1nc(O)ncc1F [Cmpd 9],76 to 100,26 to 50,
CCC(CC)C(=O)Nc1nc(O)ncc1F [Cmpd 10],26 to 50,0 to 25,
CCCC(=O)Nc1nc(O)ncc1F [Cmpd 11],76 to 100,76 to 100,
O=C(Nc1nc(O)ncc1F)c1ccccc1 [Cmpd 12],76 to 100,76 to 100,
CC(C)C(=O)Nc1nc(O)ncc1F [Cmpd 13],76 to 100,76 to 100,
COC(=O)Nc1nc(O)ncc1F [Cmpd 14],26 to 50,0 to 25,
Cc1ccc(OC(=O)Nc2nc(O)ncc2F)cc1 [Cmpd 15],,,"pest or weed control at 100 ppm [4, 10]: 76 to 100%; pest or weed control at 100 ppm [4, 11]: 51 to 75%"
O=C(Nc1nc(O)ncc1F)Oc1ccccc1 [Cmpd 16],,,"pest or weed control at 100 ppm [4, 10]: 76 to 100%; pest or weed control at 100 ppm [4, 11]: 76 to 100%"
CCONc1nc(O)ncc1F [Cmpd 17],26 to 50,76 to 100,
CNc1nc(O)ncc1F [Cmpd 18],0 to 25,51 to 75,
CCCCCOC(=O)Nc1nc(O)ncc1F [Cmpd 19],0 to 25,0 to 25,
COc1ccc(C(=O)Nc2nc(O)ncc2F)cc1 [Cmpd 20],0 to 25,0 to 25,
COc1cccc(C(=O)Nc2nc(O)ncc2F)c1 [Cmpd 21],0 to 25,0 to 25,
COc1ccccc1C(=O)Nc1nc(O)ncc1F [Cmpd 22],0 to 25,0 to 25,
O=C(Nc1nc(O)ncc1F)c1cccc(Br)c1 [Cmpd 23],26 to 50,0 to 25,
O=C(Nc1nc(O)ncc1F)c1ccccc1Cl [Cmpd 24],26 to 50,26 to 50,
